Experimental data: patent publication US20210275443A1, “SUSTAINED-RELEASE INJECTION PREPARATION CONTAINING DONEPEZIL DERIVATIVE” (NANJING NORATECH PHARMACEUTICAL CO., LTD., priority 2018, published 2021)

Conditions: after i.m. administration of the suspension
Protocol: There were 3 animals in each group. […] The whole blood was centrifuged to collect plasma, which was transferred to a 96-well plate, and stored at −20° C. for detection by LC-MS/MS. The drug concentration at each sampling time was determined by measuring the standard curve of reference donepezil in plasma.

In the case of CCCCCCC(=O)OC1=C(CC2CCN(Cc3ccccc3)CC2)Cc2cc(OC)c(OC)cc21 [donepezil heptanoate, Donepezil Heptanoate], the “Metabolism of the prodrug into donepezil after administration” value was “rapidly metabolized into donepezil”.
